In experiment [1] the target is T1, recombinant human ALK5 (TGF-βR1) protein (Homo sapiens, UniProt P36897).
T1 construct: purchased Life Technologies PR9075A
T1 sequence (P36897 34-503): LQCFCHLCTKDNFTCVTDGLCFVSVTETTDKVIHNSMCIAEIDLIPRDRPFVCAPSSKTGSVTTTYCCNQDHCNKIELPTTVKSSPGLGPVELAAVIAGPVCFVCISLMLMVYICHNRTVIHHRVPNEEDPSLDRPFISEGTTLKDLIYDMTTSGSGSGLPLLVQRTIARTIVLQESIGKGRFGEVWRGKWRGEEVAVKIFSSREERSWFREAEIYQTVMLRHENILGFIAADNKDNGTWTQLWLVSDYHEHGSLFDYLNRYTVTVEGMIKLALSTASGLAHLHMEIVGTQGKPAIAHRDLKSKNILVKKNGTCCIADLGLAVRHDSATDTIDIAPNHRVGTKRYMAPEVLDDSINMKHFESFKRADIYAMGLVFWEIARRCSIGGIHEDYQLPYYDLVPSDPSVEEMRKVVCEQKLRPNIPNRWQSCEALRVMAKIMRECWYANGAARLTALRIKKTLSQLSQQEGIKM
The experiment is described as follows: Biochemical ALK5 (TGF-βR1) assay to measure pKi (LANCE Ultra ULight kinase assay). As to conditions: apparent pKi from pIC50 by Cheng-Prusoff, read-out: ALK5 pKi (converted). In outline:
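Compounds (10 μM to 25 pM) were preincubated 60 min at room temperature with enzyme, then reactions were started with ATP (125 μM stock, 5× final) and run 60 min at 37 °C. EDTA-containing Eu-anti-phospho-Topo IIα (Thr1342) antibody stopped the reaction; TR-FRET read at 665 nm. pIC50 from 4-parameter fit, converted to pKi via Cheng-Prusoff.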

The test system of experiment [2] is TGF-β-stimulated SMAD3 phosphorylation in BEAS-2B cells. The experiment is described as follows: Cellular ALK5 potency assay, inhibition of TGF-β stimulated pSMAD3 formation in BEAS-2B cells. It counts as cell-based. As to conditions: Homo sapiens; inhibition of TGF-β stimulated pSMAD3 formation, BEAS-2B cells; read-out: BEAS2B pIC50 (converted). In outline:
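Potency is reported as pIC50, derived from concentration-dependent reduction of pSMAD3 AlphaLISA signal against TGF-β-stimulated cells without compound. BEAS-2B cells received compound for 1 h before a 30-min stimulation with 10 ng/mL TGF-β.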

For `CNc1ccnc2ccc(-c3c[nH]nc3-c3cccc(C)n3)nc12` [Compound 838, N-methyl-6-[3-(6-methyl-2-pyridyl)-1H-pyrazol-4-yl]-1,5-naphthyridin-4-amine], the Ki in experiment [1] was 0.398 to 3.16 nM. For the same molecule, the IC50 in experiment [2] was 25.1 to 158 nM.
On the same counts, the results for `Cc1nc(-c2nc3ccccn3c2-c2ccc3ncc(N4CCC(N5CCN(C)CC5)CC4)cc3n2)ccc1F` [Compound 47, 2-[2-(5-fluoro-6-methyl-2-pyridyl)imidazo[1,2-a]pyridin-3-yl]-7-[4-(4-methylpiperazin-1-yl)-1-piperidyl]-1,5-naphthyridine] are 0.0398 to 0.316 nM and 200 to 1260 nM.
For `Cc1cccc(-c2nnn(Cc3ccccc3)c2-c2ccc3ncc(N4CCC(N(C)C)C4)cc3c2)n1` (stereo not drawn) [Compound 191, 1-[6-[3-benzyl-5-(6-methyl-2-pyridyl)triazol-4-yl]-3-quinolyl]-N,N-dimethyl-pyrrolidin-3-amine], in that order: 0.0398 to 0.316 nM and 25.1 to 158 nM.
On the same counts, the results for `Cc1cccc(-c2n[nH]cc2-c2ccc3ncc(N4CCN(CC#N)CC4)cc3n2)n1` [Compound 299, 2-[4-[6-[3-(6-methyl-2-pyridyl)-1H-pyrazol-4-yl]-1,5-naphthyridin-3-yl]piperazin-1-yl]acetonitrile] are below 0.0316 nM and below 20 nM.
Consider `Cc1cccc(-c2nc3ccccn3c2-c2ccc3ncc(Br)cc3n2)n1` [Compound 657, 7-bromo-2-[2-(6-methyl-2-pyridyl)imidazo[1,2-a]pyridin-3-yl]-1,5-naphthyridine], for which the Ki in experiment [1] was 0.0398 to 0.316 nM. Further, the IC50 in experiment [2] was 25.1 to 158 nM.
As for `Cc1cccc(-c2[nH]cnc2-c2ccc3ncc(N4CCNC(CC(=O)OCC(C)C)C4)cc3c2)n1` (stereo not drawn) [Compound 690, isobutyl 2-[4-[6-[5-(6-methyl-2-pyridyl)-1H-imidazol-4-yl]-3-quinolyl]piperazin-2-yl]acetate], the Ki in experiment [1] was 0.0398 to 0.316 nM. In experiment [2], the IC50 was 25.1 to 158 nM.
On the same counts, the results for `Cc1nc(-c2n[nH]cc2-c2ccc3ncc(-c4cn5c(n4)CNCC5)cc3n2)ccc1F` [Compound 422, 2-[3-(5-fluoro-6-methyl-2-pyridyl)-1H-pyrazol-4-yl]-7-(5,6,7,8-tetrahydroimidazo[1,2-a]pyrazin-2-yl)-1,5-naphthyridine] are below 0.0316 nM and 25.1 to 158 nM.
For `Cc1cccc(-c2[nH]cnc2-c2ccc3ncc(C4=CC[C@H](NC(=O)C5CCNCC5)CC4)cc3c2)n1` [Compound 370, N-[(1R)-4-[6-[5-(6-methyl-2-pyridyl)-1H-imidazol-4-yl]-3-quinolyl]cyclohex-3-en-1-yl]piperidine-4-carboxamide], in that order: 0.0398 to 0.316 nM and 1580 to 10000 nM.
On the same counts, the results for `Cc1cccc(-c2[nH]cnc2-c2ccc3ncc(-c4ccnc(C(=O)OC5CNC5)c4)cc3c2)n1` [Compound 1133, azetidin-3-yl 4-[6-[5-(6-methyl-2-pyridyl)-1H-imidazol-4-yl]-3-quinolyl]pyridine-2-carboxylate] are 0.0398 to 0.316 nM and 200 to 1260 nM.
Regarding `Cc1cccc(-c2[nH]cnc2-c2ccc3ncc(Nc4cnn(C5CNC5)c4)cc3c2)n1` [Compound 227, N-[1-(azetidin-3-yl)pyrazol-4-yl]-6-[5-(6-methyl-2-pyridyl)-1H-imidazol-4-yl]quinolin-3-amine], the Ki in experiment [1] was 0.0398 to 0.316 nM. Besides, in experiment [2], the IC50 was 200 to 1260 nM.
For `Cc1cccc(-c2[nH]cnc2-c2ccc3ncc(NCCN4CCC5(CCNC5)C4)cc3c2)n1` (stereo not drawn) [Compound 711, N-[2-(2,7-diazaspiro[4.4]nonan-2-yl)ethyl]-6-[5-(6-methyl-2-pyridyl)-1H-imidazol-4-yl]quinolin-3-amine], in that order: 0.0398 to 0.316 nM and 200 to 1260 nM.
For `Cc1cccc(-c2[nH]cnc2-c2ccc3ncc(-c4cncc(C(=O)O)c4)cc3c2)n1` [Compound 795, 5-[6-[5-(6-methyl-2-pyridyl)-1H-imidazol-4-yl]-3-quinolyl]pyridine-3-carboxylic acid], in that order: 0.398 to 3.16 nM and 1580 to 10000 nM.
